Results on 36 molecules are retold here after a melting point compilation (Tetko et al.; mined from patent text by program, amines drawn as free bases though some values may be those of a salt).

Where only a bound is given, the exact number is not on record here.

Take `OCC1OC(n2cnc3c(NCC(c4ccc(F)cc4)c4ccc(F)cc4)ncnc32)C(O)C1O` (stereo unspecified): the melting point fell in the range of 75 to 80 °C.
In the case of `CCCCC1Cc2c(c3cccnc3n(-c3ccc(C)cc3)c2=O)O1` (stereo unspecified), the melting point fell in the range of 282 to 284 °C.
The same measure for `COc1ccc2c(n1)c(CCNC(C)=O)c1n2CCCC1`: 89 to 90 °C; for `O=C1Nc2cc(F)ccc2OC1CCO` (stereo unspecified): 126 to 130 °C.
Take `CN(C)C(=O)c1cc2c(OC[C@H](O)CN3CCC(c4ccc5ccccc5c4)CC3)cccc2[nH]1`: the melting point lay within 158 to 160 °C.
Molecule `COc1cc2c(cc1OC)CN(Cc1ccc(OC(=O)N(C)C)c(OC)c1)CC2` registered a melting point of 126 to 128 °C.
In turn, `CO/C=C(/C(=O)OC)c1ccccc1C=O` came in with a melting point of 67 to 69 °C.
The same measure for `O=C1c2ccc(O)cc2CCC1Cc1ccccc1` (stereo unspecified): 160 to 162 °C; for `COC(=O)c1cc(CBr)cc(C2(C#N)CCC2)c1`: 93.9 to 94.6 °C.
`Cc1c(-c2ccccc2)sc2nc(NC3CCCCC3)[nH]c(=O)c12` yielded a melting point of 265 to 270 °C.
With `CN1Cc2c(Cc3ccc4c(c3)C(=O)NC4=O)ncn2-c2ccsc2C1=O` the figure was 245 to 246 °C; with `N#Cc1ccc(-c2ccc(OC3SCC(O)C(O)C3O)c(F)n2)cn1` (stereo unspecified), 158 to 162 °C; with `O=C(Nc1ccc(C(=O)N2CCc3cn[nH]c3-c3ncccc32)cc1)c1ccccc1-c1ccccc1`, 250 to 251 °C.
With `N#Cc1cccc(C(=O)Cc2ccnnc2)c1`, the melting point lay within 142 to 144 °C.
The molecule `O=C(O)c1cccc2c1Cc1c-2[nH]c2ccc(F)cc12` returned a melting point above 300 °C.
The molecule `O=C1CCCC1c1ccc(Cl)cc1` (stereo unspecified) showed a melting point of 154 to 155 °C.
`FC(F)(F)c1cc2ncccc2cc1Cl`: the melting point was 137 to 139 °C.
Regarding `COc1cc2c(cc1Nc1ncc(Cl)c(Nc3ccccc3S(=O)(=O)N(C)C)n1)CCN(CCN1CCOCC1)C(=O)C2`, the melting point fell in the range of 75 to 91 °C.
With `O=P1(c2ccccc2)c2ccccc2CN1Cc1ccccc1` (stereo unspecified) the figure was 99 to 101 °C.
Regarding `COc1ccccc1NC1CN([C@H]2CC[C@@H](c3c[nH]c4ccccc43)CC2)C1`, the melting point was in the range of 67 to 70 °C.
For `COc1cc(C)nc(NC(=O)NS(=O)(=O)c2ccccc2C2=CCCC2)n1`, the melting point was in the range of 235 to 236 °C.
On to `Cc1ccnc2[nH]c(=O)c(CC(=O)O)cc12`, for which the melting point is above 250 °C.
Molecule `CCn1ncc(C(=O)c2ccc(S(C)(=O)=O)c(C(=O)OC)c2C)c1O` came in with a melting point of 150 to 152 °C.
In turn, `CC(C)Cn1c(=O)n(C)c(=O)c2c(SCCO)n(Cc3cccc4ccccc34)cc21` yielded a melting point of 138 to 141 °C.
With `CC1(C)OC(O)C(Oc2ccc(F)c(F)c2)=C1c1ccc(S(C)(=O)=O)cc1` (stereo unspecified), the melting point amounted to 151 °C.
With `NC(=O)c1ccc(NC2CCOCC2)cc1` the figure was 208 to 210 °C; with `c1cc(COc2ccc3ccccc3c2)cc(-c2nnn[nH]2)c1`, 200 to 202 °C; with `CCOCCOc1ccccc1-c1cc(=O)c2cc(C(=O)O)ccc2o1`, 198 to 200 °C.
The molecule `Oc1ccc2c(c1)[C@H](O)[C@H](Oc1cccnc1)CO2` (relative stereo) displayed a melting point of 194 to 197 °C.
`Cc1nc(C(=O)O)c(OCc2ccccc2)c(=O)n1C` had a melting point of 180 to 181 °C.
With `c1ccc(C(c2ccccc2)N2CCc3ccccc32)cc1`, the melting point is 62 to 63.5 °C.
With `CC(C)c1cccc(C(C)C)c1NC(=O)NCCN1CCN(CCSc2nc3ccccc3o2)CC1` the figure was 152 to 153 °C.
With `OCCN1CCN(Cc2ccc(O)c3ncccc23)CC1` the figure was 123 to 124 °C; with `CN1[C@@H](c2ccc(O)cc2)c2ccccc2S1(=O)=O`, 178 to 180 °C.
For `CN1C(=O)COc2cc3c(cc21)OCC31C(=O)Nc2ccccc21` (stereo unspecified), the melting point was above 250 °C.
With `Cc1ccc(-c2cccc(/C=C/C(=O)Nc3ccc(CCl)cc3)c2)cc1` the figure was 178 to 180 °C.

A word on the melting point: it is the temperature, or range, at which the solid turns liquid.
